The structures appear in SMILES notation. Where a name gives a salt, the structure may show the parent alone.

The target in the experiment is CCR4 (Homo sapiens (Human), UniProt P51679). Nature of the experiment: Calcium mobilization (Ca Flux) assay. Type of experiment: cell-based. Here is the method: Calcium Mobilization Assay. Calcium mobilization experiments may be performed by labeling the human T-cell line CEM with […] dye (45 min at room temperature), washing with PBS, and re-suspending into flux buffer (HBSS with 1% FBS).
Sequence of CCR4 (P51679 whole entry): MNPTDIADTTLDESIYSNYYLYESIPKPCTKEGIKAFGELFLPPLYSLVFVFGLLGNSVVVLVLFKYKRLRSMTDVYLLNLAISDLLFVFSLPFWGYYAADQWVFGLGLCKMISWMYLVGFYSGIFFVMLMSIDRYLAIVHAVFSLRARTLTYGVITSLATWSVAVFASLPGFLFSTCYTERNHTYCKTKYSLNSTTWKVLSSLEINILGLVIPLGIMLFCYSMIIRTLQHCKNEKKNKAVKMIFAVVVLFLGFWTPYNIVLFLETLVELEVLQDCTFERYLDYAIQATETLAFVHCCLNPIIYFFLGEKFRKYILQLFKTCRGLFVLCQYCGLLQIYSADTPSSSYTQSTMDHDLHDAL
A general note: Calcium flux is commonly read through the fluorescence of an indicator in the cells.

The IC50 is the concentration that inhibits the measured activity by half. `CCOC(=O)c1nn(Cc2ccc(Cl)cc2Cl)c2nc(N3CCC(N4CCCCC4)C(C)C3)cnc12` (stereo not shown) [Example 11, Ethyl 1-(2,4-dichlorobenzyl)-6-(3′-methyl-[1,4′-bipiperidin]-1′-yl)-1H-pyrazolo[3,4-b]pyrazine-3-carboxylate hydrochloride]: the IC50 lay within 100 to 500 nM.

Take `CC(c1ccc(Cl)cc1Cl)n1nc(C(N)=O)c2ncc(N3CCC(N4CCCCC4)C(F)C3)nc21` (stereo not shown) [Example 25, 1-(1-(2,4-Dichlorophenyl)ethyl)-6-(3′-fluoro-[1,4′-bipiperidin]-1′-yl)-1H-pyrazolo[3,4-b]pyrazine-3-carboxamide hydrochloride]: the IC50 lay within 100 to 500 nM.

In the case of `CC1CCCCN1C1CCN(c2cnc3c(C(N)=O)nn(C(C)c4ccc(Cl)cc4Cl)c3n2)CC1` (stereo not shown) [Example 3, 1-(1-(2,4-Dichlorophenyl)ethyl)-6-(2-methyl-[1,4′-bipiperidin]-1′-yl)-1H-pyrazolo[3,4-b]pyrazine-3-carboxamide hydrochloride], the IC50 was above 500 nM.

For `Cc1nn([C@H](C)c2ccc(Cl)cc2Cl)c2nc(N3CC[C@H](N4CCC[C@@H](CC(=O)O)C4)[C@H](CO)C3)cnc12` [Example 65, 2-((3S,3′R,4′S)-1′-(1-((R)-1-(2,4-Dichlorophenyl)ethyl)-3-methyl-1H-pyrazolo[3,4-b]pyrazin-6-yl)-3′-(hydroxymethyl)-[1,4′-bipiperidin]-3-yl)acetic acid hydrochloride], the IC50 is 100 to 500 nM.

Turning to `CC1CC(c2cnc3c(C(F)(F)F)nn([C@H](C)c4ccc(Cl)cc4Cl)c3n2)=CCC1N1CCC[C@H]1C` (stereo partly drawn) [Example 88, 1-((R)-1-(2,4-Dichlorophenyl)ethyl)-6-(5-methyl-4-((R)-2-methylpyrrolidin-1-yl)cyclohex-1-en-1-yl)-3-(trifluoromethyl)-1H-pyrazolo[3,4-b]pyrazine trifluoroacetic acid], the IC50 was 100 to 500 nM.

As for `CNC(=O)[C@@H]1CCCN1[C@H]1CC=C(c2cnc3c(C#N)nn([C@H](C)c4ccc(Cl)cc4Cl)c3n2)C[C@H]1C` [Example 91, (S)-1-((1S,6R)-4-(3-Cyano-1-((R)-1-(2,4-dichlorophenyl)ethyl)-1H-pyrazolo[3,4-b]pyrazin-6-yl)-6-methylcyclohex-3-en-1-yl)-N-methylpyrrolidine-2-carboxamide trifluoroacetate], the IC50 was 100 to 500 nM.

Consider `CC1CC(c2cnc3c(C#N)nn([C@H](C)c4ccc(Cl)cc4Cl)c3n2)=CCC1N1CCC[C@H]1CCC(=O)O` (mixture of isomers) [Example 74, 3-((2S)-1-(4-(3-Cyano-1-((R)-1-(2,4-dichlorophenyl)ethyl)-1H-pyrazolo[3,4-b]pyrazin-6-yl)-6-methylcyclohex-3-en-1-yl)pyrrolidin-2-yl)propanoic acid 2,2,2-trifluoroacetate], for which the IC50 is below 100 nM.

With `C[C@H](c1ccc(Cl)cc1Cl)n1nc(C#N)c2ncc(C3=CC[C@@H](N4CCC[C@H]4CO)[C@@H](C)C3)nc21` [Example 75, 1-((R)-1-(2,4-Dichlorophenyl)ethyl)-6-((4R,5S)-4-((S)-2-(hydroxymethyl)pyrrolidin-1-yl)-5-methylcyclohex-1-en-1-yl)-1H-pyrazolo[3,4-b]pyrazine-3-carbonitrile], the IC50 lay in the range of 100 to 500 nM.

`Cc1nn([C@H](C)c2ccc(Cl)cc2Cl)c2nc(N3CC[C@H](N4CCC[C@H]4C(=O)O)[C@H](C)C3)cnc12` [Example 34, ((3R,4S)-1-(1-((R)-1-(2,4-Dichlorophenyl)ethyl)-3-methyl-1H-pyrazolo[3,4-b]pyrazin-6-yl)-3-methylpiperidin-4-yl)-L-proline 2,2,2-trifluoroacetate]: the IC50 is above 500 nM.

Take `Cc1nn([C@H](C)c2ccc(Cl)cc2Cl)c2nc(N3CC[C@H](N4CCC[C@H]4CCC(N)=O)[C@H](C)C3)cnc12` [Example 44, 3-((S)-1-((3R,4S)-1-(1-((R)-1-(2,4-Dichlorophenyl)ethyl)-3-methyl-1H-pyrazolo[3,4-b]pyrazin-6-yl)-3-methylpiperidin-4-yl)pyrrolidin-2-yl)propanamide hydrochloride]: the IC50 is below 100 nM.

Take `C[C@H](c1ccc(Cl)cc1Cl)n1nc(C#N)c2ncc(C3=CC[C@@H](N4CCC[C@H]4C(N)=O)[C@@H](C)C3)nc21` [Example 80, (S)-1-((1R,6S)-4-(3-Cyano-1-((R)-1-(2,4-dichlorophenyl)ethyl)-1H-pyrazolo[3,4-b]pyrazin-6-yl)-6-methylcyclohex-3-en-1-yl)pyrrolidine-2-carboxamide hydrochloride]: the 50% inhibitory concentration (IC50) lay in the range of 100 to 500 nM.

Turning to `Cc1nn([C@H](C)c2ccc(Cl)cc2Cl)c2nc(N3CCC(N4CCC[C@@H]4C)C(C)C3)cnc12` (stereo partly drawn) [Example 21, 1-((R)-1-(2,4-Dichlorophenyl)ethyl)-3-methyl-6-(3-methyl-4-((S)-2-methylpyrrolidin-1-yl)piperidin-1-yl)-1H-pyrazolo[3,4-b]pyrazine hydrochloride], the IC50 was above 500 nM.

For the compound `C[C@H](c1ccc(Cl)cc1Cl)n1nc(C#N)c2ncc(N3CC[C@H](N4CCCCC4)[C@H](CO)C3)nc21` [Example 29, 1-((R)-1-(2,4-Dichlorophenyl)ethyl)-6-((3′R,4′S)-3′-(hydroxymethyl)-[1,4′-bipiperidin]-1′-yl)-1H-pyrazolo[3,4-b]pyrazine-3-carbonitrile hydrochloride], the IC50 is below 100 nM.

As for `Cc1nn([C@H](C)c2ccc(Cl)cc2Cl)c2nc(C3=CCC(N4CCC[C@H]4CCC(N)=O)[C@H](C)C3)cnc12` (stereo partly drawn) [Example 77, 3-((S)-1-((1S,6R)-4-(1-((R)-1-(2,4-Dichlorophenyl)ethyl)-3-methyl-1H-pyrazolo[3,4-b]pyrazin-6-yl)-6-methylcyclohex-3-en-1-yl)pyrrolidin-2-yl)propanamide 2,2,2-trifluoroacetae], the IC50 is below 100 nM.

Turning to `Cc1nn([C@H](C)c2ccc(Cl)cc2Cl)c2nc(C3=CC[C@H](N4CCC[C@H]4CCC(=O)O)[C@H](C)C3)cnc12` [Example 71, 3-((S)-1-((1S,6R)-4-(1-((R)-1-(2,4-Dichlorophenyl)ethyl)-3-methyl-1H-pyrazolo[3,4-b]pyrazin-6-yl)-6-methylcyclohex-3-en-1-yl)pyrrolidin-2-yl)propanoic acid hydrochloride], the IC50 was below 100 nM.

Regarding `Cc1nn([C@H](C)c2ccc(Cl)cc2Cl)c2nc(N3CC[C@H](N4CCCC4)[C@H](C)C3)cnc12` [Example 12, 1-((R)-1-(2,4-Dichlorophenyl)ethyl)-3-methyl-6-((3R,4S)-3-methyl-4-(pyrrolidin-1-yl)piperidin-1-yl)-1H-pyrazolo[3,4-b]pyrazine hydrochloride], the IC50 was below 100 nM.

Turning to `CCOC(=O)c1nn(C(C)c2ccc(Cl)cc2Cl)c2nc(N3CCC(N4CCCCC4)CC3)cnc12` (racemic) [Example 1, Ethyl 6-([1,4′-bipiperidin]-1′-yl)-1-(1-(2,4-dichlorophenyl)ethyl)-1H-pyrazolo[3,4-b]pyrazine-3-carboxylate hydrochloride], the IC50 is above 500 nM.

With `Cc1nn([C@H](C)c2ccc(Cl)cc2Cl)c2nc(N3CC[C@H](N4CCC[C@H]4CCC(=O)O)[C@H](C)C3)cnc12` [Example 42, 3-((S)-1-((3R,4S)-1-(1-((R)-1-(2,4-dichlorophenyl)ethyl)-3-methyl-1H-pyrazolo[3,4-b]pyrazin-6-yl)-3-methylpiperidin-4-yl)pyrrolidin-2-yl)propanoic acid hydrochloride], the IC50 fell in the range of 100 to 500 nM.

With `Cc1nn([C@H](C)c2ccc(Cl)cc2Cl)c2nc(N3CC[C@H](N4CCC[C@@H](CC(=O)O)C4)[C@H](C)C3)cnc12` [Example 38, 2-((3S,3′R,4′S)-1′-(1-((R)-1-(2,4-Dichlorophenyl)ethyl)-3-methyl-1H-pyrazolo[3,4-b]pyrazin-6-yl)-3′-methyl-[1,4′-bipiperidin]-3-yl)acetic acid formate], the concentration for half-maximal inhibition (IC50) fell in the range of 100 to 500 nM.

Take `Cc1nn([C@H](C)c2ccc(Cl)cc2Cl)c2nc(N3CC[C@H](N4C[C@H](O)C[C@H]4C(=O)O)[C@H](C)C3)cnc12` [Example 37, (2S,4R)-1-((3R,4S)-1-(1-((R)-1-(2,4-Dichlorophenyl)ethyl)-3-methyl-1H-pyrazolo[3,4-b]pyrazin-6-yl)-3-methylpiperidin-4-yl)-4-hydroxypyrrolidine-2-carboxylic acid 2,2,2-trifluoroacetate]: the IC50 is above 500 nM.

`CC1CC(c2cnc3c(C#N)nn([C@H](C)c4ccc(Cl)cc4Cl)c3n2)=CCC1N1CCC[C@H]1CC(=O)O` (mixture of isomers) [Example 85, 2-((2S)-1-(4-(3-Cyano-1-((R)-1-(2,4-dichlorophenyl)ethyl)-1H-pyrazolo[3,4-b]pyrazin-6-yl)-6-methylcyclohex-3-en-1-yl)pyrrolidin-2-yl)acetic acid 2,2,2-trifluoroacetate]: the IC50 fell in the range of 100 to 500 nM.

On to `CCOC(=O)c1nn(C(C)c2ccc(Cl)cc2Cl)c2nc(N3CCC(N4CCCCC4)C(C)C3)cnc12` (stereo not shown) [Example 2, Ethyl 1-(1-(2,4-dichlorophenyl)ethyl)-6-(3′-methyl-[1,4′-bipiperidin]-1′-yl)-1H-pyrazolo[3,4-b]pyrazine-3-carboxylate hydrochloride], for which the IC50 is 100 to 500 nM.

For `Cc1nn([C@H](C)c2ccc(Cl)cc2Cl)c2nc(N3CCC(N4CCC[C@H]4CCC(O)C(F)(F)F)C(C)C3)cnc12` (single isomer, unassigned) [Example 46, hydrochloride], the IC50 lay in the range of 100 to 500 nM.

On to `C[C@@H]1CN(c2cnc3c(C#N)nn([C@H](C)c4ccc(Cl)cc4Cl)c3n2)CC[C@@H]1N1CCC[C@@H](CC(=O)O)C1` [Example 39, 2-((3S,3′R,4′S)-1′-(3-Cyano-1-((R)-1-(2,4-dichlorophenyl)ethyl)-1H-pyrazolo[3,4-b]pyrazin-6-yl)-3′-methyl-[1,4′-bipiperidin]-3-yl)acetic acid formate], for which the IC50 was in the range of 100 to 500 nM.

For the compound `CC(c1ccc(Cl)cc1Cl)n1nc(C(N)=O)c2ncc(N3CCC(N4CCCCC4)C(CO)C3)nc21` (stereo not shown) [Example 27, 1-(1-(2,4-Dichlorophenyl)ethyl)-6-(3′-(hydroxymethyl)-[1,4′-bipiperidin]-1′-yl)-1H-pyrazolo[3,4-b]pyrazine-3-carboxamide hydrochloride], the IC50 was in the range of 100 to 500 nM.
